Literature values, collected in patent publication US20080317753A1, “SELECTING PATIENTS FOR THERAPY WITH A HER INHIBITOR” (GENENTECH, INC., priority 2004, published 2008).
Where a name gives a salt, the structure may show the parent alone.

Legend:
[1] = test system: HER2-overexpressing metastatic breast cancers; conditions: patients with HER2-overexpressing metastatic breast cancers with extensive prior anti-cancer therapy
[2] = combined with gemcitabine in several combinations of different chemotherapies, phase II trials
[3] = single agent

Molecule	clinical activity [1]	tolerability [2]	nausea and vomiting, combined incidence [3] [%]
trastuzumab: recombinant humanized version of murine HER2 antibody 4D5; light and heavy chain sequences SEQ ID NOS. 15 and 16	clinically active	well tolerated with no observed cardiac or unexpected toxicities	
Nc1ccn([C@@H]2O[C@H](CO)[C@@H](O)C2(F)F)c(=O)n1 [gemcitabine, 2′-deoxy-2′,2′-difluorocytidine monohydrochloride (b-isomer)]			69
